Measured values from patent publication US8435582B2, “Beverage preservative system containing Pimaricin-Povidone complex” (PepsiCo, Inc., priority 2009, dated 2013).
≈ marks a conversion by molar mass, not a printed value. Where two headings read alike, the source gives them in different places.

Legend:
physchem = assay type: physicochemical
Text: (§1) A 2% fruit juice based non-carbonated beverage of pH 3.4 and about 12 Brix was formed by combining the following ingredients.
(§2) The preparation of beverage was divided into two aliquots.

[1] = tested on: Byssochlamys fulva ATCC 10099; assay: 16 week MIC of un-complexed Pimaricin in 2% juice beverage, mold spores; assay type: cell-based; details: Paecilomyces fulvus, ATCC10099; beverage pH 3.4, 25° C., 20 spores/ml, spores from Potato Dextrose 25 °C; read-out: 16 week incubation MIC
[2] = tested on: Aspergillus niger isolate of Pepsi; assay: as above; assay type: cell-based; details: beverage pH 3.4, 25° C., 20 spores/ml, spores from Potato Dextrose 25 °C, read-out: 16 week incubation MIC
Text: as §1, §2
(§3) The tubes were sealed in a manner that prohibits moisture evaporation.
(§4) The mold spores employed were obtained from the following organisms. Aspergillus niger isolate of Pepsi; ATCC strain 90900 (Talaromyces spectabilis), ATCC strain 48441 (Pencillium galbrum), ATCC 24088 (Byssochlamys fulva), ATCC 96468 (Neosartorya fischeri) ATCC strain 96463 (Talaromyces flavus) and ATCC strain ATCC 10512 (Talaromyces flavus var. flavus). Each spore type was present at 20 spores per milliliter.

[3] = tested on: Neosartorya fischeri ATCC 96468; assay: as above; assay type: cell-based; details: Aspergillus fischeri, ATCC96468; beverage pH 3.4, 25° C., 20 spores/ml, spores from Potato Dextrose 25 °C; read-out: 16 week incubation MIC
Text: as §1, §2, §3, §4

[4] = tested on: Penicillium glabrum ATCC 48441; assay: as above; assay type: cell-based; details: ATCC48441, beverage pH 3.4, 25° C., 20 spores/ml, spores from Potato Dextrose 25 °C, read-out: 16 week incubation MIC
Text: as §1, §2, §3, §4

[5] = tested on: Talaromyces flavus var flavus ATCC 10512; assay: as above; assay type: cell-based; details: ATCC10512, beverage pH 3.4, 25° C., 20 spores/ml, spores from Potato Dextrose 25 °C, read-out: 16 week incubation MIC
Text: as §1, §2, §3, §4

[6] = tested on: Talaromyces spectabilis ATCC 90900; assay: as above; assay type: cell-based; details: Paecilomyces variotii, ATCC90900; beverage pH 3.4, 25° C., 20 spores/ml, spores from Potato Dextrose 25 °C; read-out: 16 week incubation MIC
Text: as §1, §2, §3, §4

[7] = tested on: Tataromyces flavus ATCC 96463; assay: as above; assay type: cell-based; details: Talaromyces flavus, ATCC96463; beverage pH 3.4, 25° C., 20 spores/ml, spores from Potato Dextrose 25 °C; read-out: 16 week incubation MIC
Text: as §1, §2, §3, §4

[8] = tested on: Brettanomyces Pepsi Isolate; assay: Growth inhibitory effect of Pimaricin, beverage medium containing 5% DMSO; assay type: cell-based; details: 2688 h, 5% DMSO beverage pH 3.4, 25° C., PDA, read-out: Observed MIC (16 week)
Text: as §1, §2
(§5) The second aliquot of beverage is identical to the first aliquot except for the presence of pimaricin. It also contains 5% DMSO. […] The tubes were sealed in a manner that prohibits moisture evaporation.
(§6) Yeast employed in the study are Zygosaccharomyces bisporus (ATCC 52407) Zygosaccharomyces bailii (ATCC 60484), Saccharomyces cerevisiae (Pepsi Isolate Y99), Brettanomyces (Pepsi Isolate Chemy 7UP), and Zygosaccharomyces (Pepsi Isolate Y2).
(§7) The mold spores employed were obtained from the following organisms Paecilomyces variotii (Pepsi isolate D16), Penicillium camembertii (Pepsi isolate M3), (Talaromyces flavus var. flavus (ATCC 10512), Byssochlamys nieva (ATCC 36614), and Byssochlamys fulva ATCC 10099). Each spore type was present initially at 20 spores per milliliter of product. Spores for a couple of strains of mold (such as Byssochlamys nieva) were developed at both 25° C. on Potato Dextrose and 30° C. on Malt Extract in order to ensure some variation in the ratio of asci (ascospores) to conidiospores.

[9] = tested on: Byssochlamys fulva ATCC 10099; assay: as above; assay type: cell-based; details: Paecilomyces fulvus, ATCC10099, pH 3.4, 5% DMSO beverage pH 3.4, 25° C., read-out: Observed MIC (16 week)
Text: as §1, §2, §5, §6, §7

[10] = tested on: Byssochlamys nieva ATCC 36614; assay: as above; assay type: cell-based; details: 2688 h; 5% DMSO beverage pH 3.4, 25° C.; spores generated on PDA at 25 °C; read-out: Observed MIC (16 week)
Text: as §1, §2, §5, §6, §7

[11] = tested on: Paecilomyces variotii Pepsi Isolate; assay: as above; assay type: cell-based; details: pH 3.4, 5% DMSO beverage pH 3.4, 25° C., read-out: Observed MIC (16 week)
Text: as §1, §2, §5, §6, §7

[12] = tested on: Penicillium camembertii Pepsi Isolate; assay: as above; assay type: cell-based; details: pH 3.4, 5% DMSO beverage pH 3.4, 25° C., read-out: Observed MIC (16 week)
Text: as §1, §2, §5, §6, §7

[13] = tested on: Saccharomyces cerevisiae Pepsi Isolate; assay: as above; assay type: cell-based; details: 5% DMSO beverage pH 3.4, 25° C., PDA, read-out: Observed MIC (16 week)
Text: as §1, §2, §5, §6, §7

[14] = tested on: Talaromyces flavus var flavus ATCC 10512; assay: as above; assay type: cell-based; details: spores generated on PDA at 25 °C
Text: as §1, §2, §5, §6, §7

[15] = tested on: Zygosaccharomyces bailli ATCC 60484; assay: as above; assay type: cell-based; details: ATCC60484, 5% DMSO beverage pH 3.4, 25° C., PDA, read-out: Observed MIC (16 week)
Text: as §1, §2, §5, §6, §7

[16] = tested on: Zygosaccharomyces bailli Pepsi Isolate; assay: as above; assay type: cell-based; details: 5% DMSO beverage pH 3.4, 25° C., PDA, read-out: Observed MIC (16 week)
Text: as §1, §2, §5, §6, §7

[17] = tested on: Zygosaccharomyces bisporus ATCC 52407; assay: as above; assay type: cell-based; details: ATCC52407, 5% DMSO beverage pH 3.4, 25° C., PDA, read-out: Observed MIC (16 week)
Text: as §1, §2, §5, §6, §7

mold fungi = assay: Preservation of beverage product for 16 weeks, Pimaricin stand alone; assay type: cell-based; details: Pimaricin as the only antimicrobial substance (stand alone)
[18] = 25° C., pH approximately 6.4; cited from earlier work
[19] = spores generated on MEA at 30 °C
[20] = spores generated on PDA at 25 °C

solubility (physchem; 4 °C, pH 3.4, aqueous buffer, thermodynamic from solid, solubility limit in high acid beverage): 0.01 mg/mL (≈ 15 µM) | solubility at 24 h (physchem; 25 °C, pH 3.4, aqueous buffer, thermodynamic from solid, solubility limit in high acid beverage): 0.02 mg/mL (≈ 30 µM) | solubility limit in high acid beverage (physchem; 24 h, pH 3.4): about 20 mg/L | MIC [1]: 16.9 mg/L | MIC [2]: 18.4 mg/L | MIC [4]: 5.7 mg/L | MIC [5]: > 20 mg/L | MIC [6]: 10.3 mg/L | MIC [7]: > 20 mg/L | MIC [8]: 2.5 mg/L (≈ 3.76 µM) | MIC [9, 19]: 7.9 mg/L (≈ 11.9 µM) | MIC [9, 20]: 2 mg/L (≈ 3 µM) | MIC [10]: 46 mg/L (≈ 69.1 µM) | MIC [11, 19]: > 72 mg/L | MIC [11, 20]: 58.3 mg/L (≈ 87.6 µM) | MIC [12, 19]: 65 mg/L (≈ 97.6 µM) | MIC [12, 20]: 6.4 mg/L (≈ 9.61 µM) | MIC [13]: 2.5 mg/L (≈ 3.76 µM) | Observed MIC (16 week) ([14]; 5% DMSO beverage pH 3.4, 25° C.): >72 ppm | MIC ([14]; Talaromyces flavus, ATCC10512, pH 3.4, 5% DMSO beverage pH 3.4, 25° C., read-out: Observed MIC (16 week)): 72 mg/L (≈ 108 µM) | MIC [15]: 2.5 mg/L (≈ 3.76 µM) | MIC [16]: 2.5 mg/L (≈ 3.76 µM) | MIC [17]: 2.5 mg/L (≈ 3.76 µM)
SMILES: C[C@@H]1C/C=C/C=C/C=C/C=C/[C@H](O[C@@H]2O[C@H](C)[C@@H](O)[C@H](N)[C@@H]2O)C[C@@H]2O[C@](O)(C[C@@H](O)C[C@H]3O[C@@H]3/C=C/C(=O)O1)C[C@H](O)[C@H]2C(=O)O [Pimaricin]
MIC [3]: > 20 mg/L | minimum initial concentration needed to preserve product for 16 weeks (mold fungi): 280 mg Pimaricin per liter | solubility in pure water [18]: 0.052 mg/mL (≈ 78.1 µM)
